In ChEMBL document CHEMBL1142268, “Histone deacetylase inhibitors: from bench to clinic” (J Med Chem, 2008):
Each block holds one molecule with its values, some of them ahead of it. Active and inactive are the calls of the source. No cut-off for these calls is given here.

Experiments:
[1] = test system: SK-BR-3; test: Antiproliferative activity against human SKBR3 cells; format: functional, cell-based
[2] = test system: MKN-45; test: Antiproliferative activity against human MKN45 cells; format: functional, cell-based
[3] = target: Histone deacetylase; test: Inhibition of HDAC from human SNU16 cells; details: snu-16
[4] = test system: A549; test: cells; details: Homo sapiens
Description: Antiproliferative activity against human A549 cells

[5] = test system: MCF7; test: Inhibition of human MCF7 cells; format: functional, cell-based
[6] = test system: HCT-116; test: Inhibition of human HCT116 cells; format: functional, cell-based
[7] = test system: A549; test: Antitumor activity against human A549 cells xenografted in nude mouse model at 20 mg/kg, ip; format: functional; details: route intraperitoneal, read-out: TGI
[8] = test system: HCT-116; test: Antitumor activity against human HCT116 cells xenografted in nude mouse model at 20 mg/kg, ip; format: functional; details: HCT-116, ip, route intraperitoneal, read-out: TGI
[9] = test system: SW48; test: Antitumor activity against human SW48 cells xenografted in nude mouse model at 20 mg/kg, ip; format: functional; details: route intraperitoneal, read-out: TGI
[10] = test system: SW-620; test: Inhibition of human SW620 cells; format: functional, cell-based
[11] = Inhibition of human CCD1059SK cells; format: functional, cell-based
[12] = test system: NCI-H460; test: Inhibition of human NCI-H460 cells; format: functional, cell-based
[13] = test system: MDA-MB-231; test: Inhibition of human MDA-MB-231 cells; format: functional, cell-based
[14] = test system: SNB-78; test: Inhibition of human SNB78 cells; format: functional, cell-based
[15] = test system: NCI-H226; test: Inhibition of human NCI-H226 cells; format: functional, cell-based
[16] = test system: LOX IMVI; test: Inhibition of human LOX-IMVI cells; format: functional, cell-based
[17] = test system: SK-OV-3; test: Inhibition of human SKOV3 cells; format: functional, cell-based
[18] = Inhibition of human RFX631L cells; format: functional
[19] = test system: St-4; test: Inhibition of human St4 cells; format: functional, cell-based
[20] = test system: DU-145; test: Inhibition of human DU145 cells; format: functional, cell-based
[21] = target: T1, Histone deacetylase 1 (Homo sapiens, UniProt Q13547); test: Inhibition of HDAC1 from human HeLa cells; format: cell-based
[22] = Metabolic stability in human liver microsomes; format: ADME, Microsome
[23] = target: T1, Histone deacetylase 1
[24] = target: T2, Histone deacetylase 8 (Homo sapiens, UniProt Q9BY41)
T2 sequence (Q9BY41 whole entry): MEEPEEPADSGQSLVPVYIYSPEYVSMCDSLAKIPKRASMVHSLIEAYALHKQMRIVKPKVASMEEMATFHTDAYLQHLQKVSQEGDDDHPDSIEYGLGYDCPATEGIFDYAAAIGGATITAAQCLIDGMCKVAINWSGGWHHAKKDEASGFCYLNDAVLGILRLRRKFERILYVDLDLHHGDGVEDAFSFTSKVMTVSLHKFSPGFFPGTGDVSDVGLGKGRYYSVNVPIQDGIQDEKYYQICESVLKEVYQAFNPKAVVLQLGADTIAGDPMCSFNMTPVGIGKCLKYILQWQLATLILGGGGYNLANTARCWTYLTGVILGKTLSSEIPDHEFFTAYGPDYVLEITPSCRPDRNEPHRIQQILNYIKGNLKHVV

[25] = Antiproliferative activity against human MDA435 cells; format: functional, cell-based; details: MDA-MB-435
[26] = target: Histone deacetylase; test: Inhibition of HDAC from human K562 cells; format: cell-based
[27] = test system: HT-1080; test: Inhibition of human HT1080 cells; format: functional, cell-based
[28] = target: T1, Histone deacetylase 1; test: Inhibition of HDAC1
[29] = target: Histone deacetylase (Homo sapiens) (UniProt Q13547+O15379+Q9UBN7+Q92769+Q9UQL6+Q8WUI4+Q9BY41+Q96DB2+P56524+Q9UKV0+Q969S8); test: Inhibition of HDAC from human HeLa cells at 1000 nM; format: cell-based
[30] = target: Histone deacetylase; test: Inhibition of HDAC from human HeLa cells; format: cell-based
[31] = target: T2, Histone deacetylase 8; remark: listed apart in the source
Description: Inhibition of human HDAC8

[32] = target: Histone deacetylase 3 (Homo sapiens, UniProt O15379)
[33] = target: T3, Protein deacetylase HDAC6 (Homo sapiens, UniProt Q9UBN7)
T3 sequence (Q9UBN7 whole entry): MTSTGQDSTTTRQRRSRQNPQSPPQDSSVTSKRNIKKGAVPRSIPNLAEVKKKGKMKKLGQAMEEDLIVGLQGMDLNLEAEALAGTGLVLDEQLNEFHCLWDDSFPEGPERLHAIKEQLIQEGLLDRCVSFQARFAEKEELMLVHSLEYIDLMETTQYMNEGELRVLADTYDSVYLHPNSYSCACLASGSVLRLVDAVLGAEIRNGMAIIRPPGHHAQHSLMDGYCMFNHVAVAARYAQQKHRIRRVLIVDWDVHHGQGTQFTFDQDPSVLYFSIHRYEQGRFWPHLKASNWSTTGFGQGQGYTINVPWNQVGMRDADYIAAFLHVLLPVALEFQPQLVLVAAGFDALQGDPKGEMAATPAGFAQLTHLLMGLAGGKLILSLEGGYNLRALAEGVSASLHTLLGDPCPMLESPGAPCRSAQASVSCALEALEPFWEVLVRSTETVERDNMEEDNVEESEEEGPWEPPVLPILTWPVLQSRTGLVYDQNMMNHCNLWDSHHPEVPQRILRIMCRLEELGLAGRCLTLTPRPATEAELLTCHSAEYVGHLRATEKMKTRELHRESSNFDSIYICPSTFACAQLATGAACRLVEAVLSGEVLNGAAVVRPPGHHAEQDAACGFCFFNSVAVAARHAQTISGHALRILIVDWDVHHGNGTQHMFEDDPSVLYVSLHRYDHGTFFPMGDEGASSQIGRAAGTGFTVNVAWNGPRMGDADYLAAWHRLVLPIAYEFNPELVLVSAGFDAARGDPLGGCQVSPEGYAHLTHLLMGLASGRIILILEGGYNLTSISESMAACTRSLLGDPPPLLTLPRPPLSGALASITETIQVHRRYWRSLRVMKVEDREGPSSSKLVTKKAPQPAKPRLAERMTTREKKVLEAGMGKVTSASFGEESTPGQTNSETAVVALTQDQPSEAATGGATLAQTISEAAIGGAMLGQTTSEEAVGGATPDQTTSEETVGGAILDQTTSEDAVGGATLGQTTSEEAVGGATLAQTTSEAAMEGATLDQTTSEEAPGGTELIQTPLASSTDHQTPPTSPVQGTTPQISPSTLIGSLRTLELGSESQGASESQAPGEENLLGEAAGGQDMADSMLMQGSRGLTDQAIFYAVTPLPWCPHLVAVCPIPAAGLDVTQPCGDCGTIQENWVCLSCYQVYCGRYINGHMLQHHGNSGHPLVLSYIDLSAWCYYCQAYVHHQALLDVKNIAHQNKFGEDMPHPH

[34] = target: Histone deacetylase 1 (Mus musculus, UniProt O09106)
Description: Inhibition of mouse liver HDAC1

[35] = target: Histone deacetylase; test: Inhibition of HDAC from human Jurkat cells
[36] = test system: Jurkat; test: Inhibition of human Jurkat cells; format: functional, cell-based
[37] = test system: HCT-116; test: Antitumor activity against human HCT116 cells xenografted in ip dosed nude mouse assessed as tumor volume inhibition; format: functional

T1 sequence (Q13547 whole entry): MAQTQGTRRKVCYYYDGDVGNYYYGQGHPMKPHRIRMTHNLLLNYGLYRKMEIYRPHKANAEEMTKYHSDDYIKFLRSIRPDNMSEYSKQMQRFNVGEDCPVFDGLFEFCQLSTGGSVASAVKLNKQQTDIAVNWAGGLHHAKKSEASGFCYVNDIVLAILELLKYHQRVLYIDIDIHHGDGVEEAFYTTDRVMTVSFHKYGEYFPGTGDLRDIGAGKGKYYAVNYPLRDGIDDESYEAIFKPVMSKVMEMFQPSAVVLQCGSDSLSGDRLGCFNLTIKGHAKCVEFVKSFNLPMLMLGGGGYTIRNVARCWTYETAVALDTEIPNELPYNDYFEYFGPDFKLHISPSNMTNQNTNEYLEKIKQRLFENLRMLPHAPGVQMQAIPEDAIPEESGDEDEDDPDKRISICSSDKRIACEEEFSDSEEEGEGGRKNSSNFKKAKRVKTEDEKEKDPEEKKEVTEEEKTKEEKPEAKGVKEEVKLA
Sequence of Histone deacetylase 1 (Mus musculus, UniProt O09106) (O09106 whole entry): as the sequence (Q13547 whole entry) above, with R8K, D399E, E424D counted along it
Sequence of Histone deacetylase 3 (O15379 whole entry): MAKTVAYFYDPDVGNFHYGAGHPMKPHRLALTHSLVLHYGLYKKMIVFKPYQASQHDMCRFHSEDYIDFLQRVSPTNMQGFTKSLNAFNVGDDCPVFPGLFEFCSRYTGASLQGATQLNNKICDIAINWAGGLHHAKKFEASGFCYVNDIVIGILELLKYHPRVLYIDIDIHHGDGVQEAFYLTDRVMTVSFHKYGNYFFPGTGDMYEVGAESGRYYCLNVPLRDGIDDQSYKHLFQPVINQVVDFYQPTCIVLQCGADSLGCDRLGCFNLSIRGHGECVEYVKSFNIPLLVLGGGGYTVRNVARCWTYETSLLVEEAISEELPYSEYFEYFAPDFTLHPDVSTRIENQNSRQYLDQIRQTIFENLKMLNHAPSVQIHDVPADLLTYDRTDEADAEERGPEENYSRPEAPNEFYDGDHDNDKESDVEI

EC50 [12]: 2000 nM
EC50 [13]: 2300 nM
EC50 [14]: 9100 nM
EC50 [6]: 3000 nM
EC50 [15]: 2600 nM
EC50 [16]: 1100 nM
EC50 [17]: 4500 nM
EC50 [18]: 2400 nM
EC50 [19]: 5000 nM
EC50 [20]: 4500 nM
Compound: CC(C)C(=O)SCCCCCCC(=O)Nc1nc(-c2ccccc2)cs1

IC50 [26]: 4.3 nM
IC50 [27]: 670 nM
Compound: CNC(=O)C(=O)CCCCCCC(=O)Nc1nc(-c2cccnc2)cs1
IC50 [25]: 2000 nM

IC50 [30]: 81 nM
IC50 [31]: 190 nM
Compound: CC(=O)SCC(=O)CCCCCCC(=O)Nc1ccccc1

IC50 [26]: 9.1 nM
Compound: CNC(=O)C(=O)CCCCCCC(=O)Nc1nc(-c2ccc(OC)cc2)cs1
IC50 [25]: 5800 nM

EC50 [12]: 20000 nM
Compound: CC(C)C(=O)SCCCCCCC(=O)Nc1ccccc1

IC50 [26]: 3.1 nM
Compound: CNC(=O)C(=O)CCCCCCC(=O)Nc1nc(-c2ccc(CCN(C)C)cc2)cs1
IC50 [25]: 160 nM

More lines, now with the values behind:

Compound: O=C(/C=C/c1ccc(CNC(=O)c2cccnc2)cc1)NO
IC50 [1]: 1280 nM
IC50 [2]: 4980 nM
IC50 [3]: 370 nM
IC50 [4]: 2890 nM

Compound: Nc1ccccc1NC(=O)c1ccc(CNC(=O)OCc2cccnc2)cc1 [ENTINOSTAT]
IC50 [1]: 870 nM
IC50 [2]: 4160 nM
IC50 [5]: 4300 nM
IC50 [6]: 500 nM
inhibition in vivo at 20 mg/kg [7]: 46%
inhibition in vivo at 20 mg/kg [8]: 56%
inhibition in vivo at 20 mg/kg [9]: 68%
IC50 [10]: 3200 nM
IC50 [11]: 65000 nM
IC50 [4]: 3580 nM

Compound: COc1ccc2[nH]c(C)c(CC(=O)N[C@@H](CCCCCC(C)=O)C(=O)NCCc3c(-c4ccccc4)[nH]c4ccccc34)c2c1
IC50 [21]: 730 nM
microsomal CLint [22]: > 300 µL/min/mg

Compound: O=C(Cc1ccc(-c2csc(NC(=O)COc3ccccc3)n2)s1)NO
IC50 [23]: 700 nM
IC50 [24]: 38 nM

Compound: S=c1[nH]cc(-c2ccncc2)[nH]1
Activity [28]: inactive

Compound: O=C(/C=C/c1cccc(NS(=O)(=O)Cc2ccccc2)c1)NO
inhibition [29]: 23%

Compound: O=C(/C=C/c1ccc(CN(CCO)CCc2cc3ccccc3[nH]2)cc1)NO
IC50 [32]: 3.7 nM
IC50 [23]: 1.8 nM
IC50 [24]: 140 nM
IC50 [33]: 15 nM

Compound: COc1ccc(CN(CCO)Cc2ccc(C(=O)Nc3ccccc3N)cc2)cc1
IC50 [1]: 3400 nM
IC50 [5]: 4900 nM
IC50 [6]: 800 nM
IC50 [10]: 2100 nM
IC50 [11]: 18400 nM
IC50 [4]: 17300 nM

Compound: Nc1ccccc1NC(=O)c1ccc(CN(CCO)Cc2ccc3c(c2)OCO3)cc1
IC50 [1]: 3500 nM
IC50 [5]: 3800 nM
IC50 [6]: 800 nM
IC50 [10]: 2200 nM
IC50 [11]: 41700 nM
IC50 [4]: 20000 nM

Compound: Cn1cc(CN(CCO)Cc2ccc(C(=O)Nc3ccccc3N)cc2)c2ccccc21
IC50 [1]: 6900 nM
IC50 [5]: 8400 nM
IC50 [6]: 5700 nM
IC50 [10]: 4500 nM
IC50 [11]: 28300 nM
IC50 [4]: 20800 nM

Compound: CC(C)(c1ccccc1)c1cc(=O)[nH]c(SCCCCCC(=O)NO)n1
IC50 [34]: 121 nM

Compound: O=C(/C=C/c1ccc(Cc2nc3ccccc3[nH]2)cc1)NO
IC50 [35]: 28 nM
IC50 [36]: 69 nM

Compound: Nc1ccccc1NC(=O)c1ccc(CN(CCO)Cc2ccccc2)cc1
IC50 [1]: 3900 nM
IC50 [5]: 10000 nM
IC50 [6]: 900 nM
IC50 [10]: 3300 nM
IC50 [11]: 19400 nM
IC50 [4]: 20500 nM

Compound: COc1cc(NCc2ccc(/C=C/C(=O)Nc3cc(-c4cccs4)ccc3N)cc2)cc(OC)c1OC
Inhibition [37]: 78%
